Data on 15 molecules can be found in patent publication US12295959B2 (priority 2021, dated 2025).

As usually defined, the EC50 is the concentration that produces a half-maximal response. What is called IC50 is the point on the concentration scale where inhibition reaches its midpoint.

A value given as a limit tells only on which side of the number the result lay.

Experiment [1] addresses T1, 5-HT2A (Homo sapiens, UniProt P28223). Description: Serotonin 5-HT2A in vitro cellular IPOne agonism assay (HTRF). It counts as cell-based. Also noted: host or cells: CHO-K1. The note with it: CHO-K1 cells, agonist mode. As for the experimental part: Serotonin 5-HT2A In Vitro Cellular IPOne Agonism Assay. The 5-HT2A IPOne HTRF assay was performed at Epics Therapeutics S.A. (Belgium, FAST-0505I) using conventional methods. Briefly, CHO-K1 cells expressing human recombinant 5-HT2A receptor grown to mid-log phase in culture media without antibiotics were detached with PBS-EDTA, centrifuged, and resuspended in medium without antibiotics buffer. 20,000 cells were distributed in a 96 well plate and incubated overnight at 37° C. with 5% CO2.
For agonist testing, the medium was removed and 20 μl of assay buffer plus 20 μl of test compound or reference agonist are added in each well. The plate was incubated for 60 min. at 37° C. with 5% CO2.
(§1) After addition of the lysis buffer containing IP1-d2 and anti-IP1 cryptate detection reagents, plates were incubated 1-hour at room temperature, and fluorescence ratios were measured according to the manufacturer specification, with the HTRF kit.
(In general: TR-FRET usually uses a lanthanide donor and a delayed reading to cut background.)

Experiment [2] has as its target T1, 5-HT2A. The experiment in a line: Serotonin 5-HT2A in vitro radioligand binding competition assay ([3H]-DOI). Also noted: purchased Epics Therapeutics S.A. (Belgium) FAST-0505B; host or cells: membrane extracts. The conditions noted are these: [3H]-DOI competition, membrane extracts. As for the experimental part: Serotonin 5-HT2A In Vitro Radioligand Binding Competition Assay. The 5-HT2A radioligand binding competition assay was performed at Epics Therapeutics S.A. (Belgium, FAST-0505B) using conventional methods. Briefly, competition binding was performed in duplicate in the wells of a 96 well plate (Master Block, Greiner, 786201) containing binding buffer (optimized for each receptor), membrane extracts (amount of protein/well optimized for each receptor), radiotracer [^3H]-DOI (final concentration optimized for each receptor) and test compound. Nonspecific binding was determined by co-incubation with 200-fold excess of cold competitor. The samples were incubated in a final volume of 0.1 ml at a temperature and for a duration optimized for each receptor and then filtered over filter plates. Filters were washed six times with 0.5 ml of ice-cold washing buffer (optimized for each receptor) and 50 μl of Microscint 20 (Packard) was added in each well. The plates were incubated 15 min on an orbital shaker and then counted with a TopCount™ for 1 min/well.

For the next experiment, the system named is rat cortical neurons. Description: Neurite outgrowth assay. The conditions noted are these: 72 h, 10 μM or less, vs DMSO control. Also noted: key: A: Statistically significant mean increase as a percent of DMSO control at 10 μM or less.; B: No statistically significant mean increase as a percent of DMSO control at 10 μM or less. It counts as cell-based. The source says: Neurite Outgrowth Assay. Changes in the pattern of neurite outgrowth have been implicated in psychiatric and neurodegenerative disorders as well as traumatic injuries. The discovery of new compounds that can positively affect neuritogenesis are important for developing new therapeutics for neurological diseases. Measurement of neurite outgrowth of rat cortical neurons using an automated image-based assay was used to determine the neuroplastic effects of the compounds of the present invention. The neurite outgrowth assay was performed at Neurofit SAS (France) as described below.
Pregnant Wistar rats (Janvier; France) were used for the study. They were delivered 6 days before their use. Upon arrival at Neurofit animal facility, they were housed one per cage and maintained in a room with controlled temperature (21-22° C.) and a reversed light-dark cycle (12 h/12 h; lights on: 17:30-05:30; lights off: 05:30-17:30) with food and water available ad libitum.
Female Wistar rats of 17 days gestation were killed by cervical dislocation and the fetuses were removed from the uterus. Their brains were placed in ice-cold medium of Leibovitz (L15, Gibco, Fisher bioblock, France). Cortices were dissected and meninges were carefully removed. The cortical neurons were dissociated by trypsinization for 30 min at 37° C. (trypsin-EDTA, Gibco) in presence of 0.1 mg/ml DNAse I (Roche, France). The reaction was stopped by addition of Dulbecco's Modified Eagle Medium (DMEM; Gibco) with 10% of fetal bovine serum (FBS; Gibco). The suspension was triturated with a 10-ml pipette and using a needle syringe 21G and centrifuged at 350×g for 10 min at room temperature. The pellet of dissociated cells was resuspended in a medium consisting of Neurobasal (Gibco) supplemented with 2% B27 supplement (Gibco), 0.5 mM L-Glutamine (Gibco), an antibiotic-antimicotic mixture. Viable cells were counted in a Neubauer cytometer using the trypan blue exclusion test (Sigma). Cells were seeded at a density of 10000 cells per well in 96-well plate (Costar) precoated with poly-L-lysine. Test compound at different concentrations were added to the cultures. Donepezil (positive control) was tested at 250 nM.
After 72 h (3 days) of plating, cultures were fixed with paraformaldehyde in PBS (4%, Sigma) for 30 min at 4° C. Then, cells were successively permeabilized with 0.1% Triton X100 for 30 min, saturated with PBS containing 3% of BSA and were incubated 1 h with anti-beta III tubulin antibody (Sigma) at 1/10 000 in PBS containing 0.5% of BSA. Cells were washed three times with PBS containing 0.5% of BSA, and they were incubated 1 h with goat anti-mouse antibody coupled with AF488 (Invitrogen A 11001) diluted at 1/1000 in PBS containing 0.5% of BSA. Finally, nuclei were staining with DAPI 1 mg/ml at 1/1000 in PBS containing 0.5% of BSA. After rinsing with PBS, the plate was filmed and neurite networks were examined and analyzed using High-Content Screening (CellInsight, Thermo Scientific). The average number of neurites per neuron and the average total length of neurites per neuron were the main parameters analyzed. Analysis of data was performed using analysis of variance (ANOVA). The Fisher's Protected Least Significant Difference test was used for multiple comparisons. A p value≤0.05 was considered significant. The software used is StatView 5.0 from SAS Institut.

In experiment [3] the target is T1, 5-HT2A. Description: Serotonin 5-HT2A in vitro cellular IPOne antagonism assay. Format: cell-based. Set-up: host or cells: CHO-K1. The conditions noted are these: CHO-K1 cells, antagonist mode, reference agonist a-Me-5HT. As for the experimental part: Serotonin 5-HT2A and 5-HT2C In Vitro Cellular IPOne Antagonism Assay. The 5-HT2A IPOne HTRF assay was performed at Epics Therapeutics S.A. (Belgium, FAST-0505I) in antagonism mode using conventional methods. Briefly, CHO-K1 cells expressing human recombinant 5-HT2A receptor grown to mid-log phase in culture media without antibiotics were detached with PBS-EDTA, centrifuged, and resuspended in medium without antibiotics buffer. 20,000 cells were distributed in a 96 well plate and incubated overnight at 37° C. with 5% CO2.
For antagonist testing, a reference agonist a-Me-5HT was added and fluorescence signal monitored for several minutes, followed by addition of 20 μl of assay buffer plus 20 μl of test compound or reference antagonist ketanserin, in each well. The plate was incubated for 60 min. at 37° C. with 5% CO2.
as §1

T1 sequence (P28223 whole entry): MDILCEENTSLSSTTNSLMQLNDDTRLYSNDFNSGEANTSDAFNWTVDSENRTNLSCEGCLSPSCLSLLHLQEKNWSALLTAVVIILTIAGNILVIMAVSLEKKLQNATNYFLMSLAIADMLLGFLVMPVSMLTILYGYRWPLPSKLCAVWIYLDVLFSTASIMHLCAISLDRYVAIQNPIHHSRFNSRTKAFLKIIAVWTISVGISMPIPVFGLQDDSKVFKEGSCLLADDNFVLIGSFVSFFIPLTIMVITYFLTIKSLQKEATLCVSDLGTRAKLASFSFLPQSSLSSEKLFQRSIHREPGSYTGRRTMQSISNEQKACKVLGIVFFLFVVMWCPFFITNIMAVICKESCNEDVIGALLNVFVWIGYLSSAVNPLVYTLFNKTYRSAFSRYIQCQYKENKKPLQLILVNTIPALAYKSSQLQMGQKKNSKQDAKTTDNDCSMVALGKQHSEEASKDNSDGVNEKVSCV

In the case of `CN1CCc2[nH]c3cc(OCc4ccccc4)ccc3c2CC1` [Compound 1, 8-(benzyloxy)-3-methyl-1,2,3,4,5,6-hexahydroazepino[4,5-b]indole], on 5-HT2A [1], the half-maximal effective concentration (EC50) is > 10000 nM. The IC50 on 5-HT2A [2] lay within 101 to 1000 nM. Further, in the experiment on rat cortical neurons, the “Increase in Neurite Branching” value is given as “B”, the “Increase in Neurite Length” value is on record as “A” and the “Increase in Neurite Number” value is listed as “A”. This molecule returned an IC50 at 5-HT2A [3] of 101 to 1000 nM.
`CN1CCc2[nH]c3cccc(OCc4ccccc4)c3c2CC1` [Compound 2, 10-(benzyloxy)-3-methyl-1,2,3,4,5,6-hexahydroazepino[4,5-b]indole]: at 5-HT2A [1], the EC50 was > 10000 nM. Besides, the IC50 at 5-HT2A [2] was < 10 nM. Also, in the experiment with rat cortical neurons, the “Increase in Neurite Branching” value is “B”, the “Increase in Neurite Length” value is recorded as “A” and the “Increase in Neurite Number” value is on record as “A”. In addition, the IC50 at 5-HT2A [3] lay within 10 to 100 nM.
`c1ccc(COc2ccc3c4c([nH]c3c2)CCNCC4)cc1` [Compound 3, 8-(benzyloxy)-1,2,3,4,5,6-hexahydroazepino[4,5-b]indole] returned an EC50 on 5-HT2A [1] of 101 to 1000 nM. Moreover, the IC50 on 5-HT2A [2] lay in the range of 101 to 1000 nM. In the experiment on rat cortical neurons, the “Increase in Neurite Branching” value is “A”, the “Increase in Neurite Length” value is reported as “A” and the “Increase in Neurite Number” value was “A”.
As to `c1ccc(COc2cccc3[nH]c4c(c23)CCNCC4)cc1` [Compound 4, 10-(benzyloxy)-1,2,3,4,5,6-hexahydroazepino[4,5-b]indole], on 5-HT2A [1], the EC50 was < 10 nM. This molecule also displayed an IC50 on 5-HT2A [2] of 10 to 100 nM. In the experiment with rat cortical neurons, the “Increase in Neurite Length” value is “B” and the “Increase in Neurite Number” value was “B”.
Consider `Cn1c2c(c3ccc(OCc4ccccc4)cc31)CCNCC2` [Compound 5, 8-(benzyloxy)-6-methyl-1,2,3,4,5,6-hexahydroazepino[4,5-b]indole], for which the EC50 at 5-HT2A [1] is > 10000 nM. At 5-HT2A [2], the IC50 was 101 to 1000 nM. For the same molecule, in the experiment on rat cortical neurons, the “Increase in Neurite Branching” value was “B”, the “Increase in Neurite Length” value is recorded as “B” and the “Increase in Neurite Number” value is recorded as “B”. For the same molecule, at 5-HT2A [3], the IC50 lay within 101 to 1000 nM.
Regarding `CN1CCc2c(n(C)c3cc(OCc4ccccc4)ccc23)CC1` [Compound 6, 8-(benzyloxy)-3,6-dimethyl-1,2,3,4,5,6-hexahydroazepino[4,5-b]indole], the EC50 at 5-HT2A [1] was > 10000 nM. For the same molecule, the IC50 on 5-HT2A [2] fell in the range of 101 to 1000 nM. Moreover, in the experiment on rat cortical neurons, the “Increase in Neurite Branching” value is “B”, the “Increase in Neurite Length” value is given as “B” and the “Increase in Neurite Number” value is on record as “B”. The molecule further had a half-inhibitory concentration (IC50) at 5-HT2A [3] of 101 to 1000 nM.
At 5-HT2A [1], `Fc1ccc(COc2ccc3c4c([nH]c3c2)CCNCC4)cc1` [Compound 7, 8-((4-fluorobenzyl)oxy)~1,2,3,4,5,6-hexahydroazepino[4,5-b]indole] had an EC50 of 101 to 1000 nM. The 50% inhibitory concentration (IC50) on 5-HT2A [2] was 101 to 1000 nM. In the experiment with rat cortical neurons, the “Increase in Neurite Branching” value was “B”, the “Increase in Neurite Length” value is “B” and the “Increase in Neurite Number” value is “B”. Moreover, at 5-HT2A [3], the IC50 was 101 to 1000 nM.
Regarding `c1ccc(Oc2ccc3c4c([nH]c3c2)CCNCC4)cc1` [Compound 11, 8-phenoxy-1,2,3,4,5,6-hexahydroazepino[4,5-b]indole], the EC50 at 5-HT2A [1] was in the range of 1000 to 10000 nM. The IC50 on 5-HT2A [2] lay within 1000 to 10000 nM; at 5-HT2A [3], 101 to 1000 nM.
For `Cn1c2c(c3ccc(Oc4ccccc4)cc31)CCNCC2` [Compound 13, 6-methyl-8-phenoxy-1,2,3,4,5,6-hexahydroazepino[4,5-b]indole], the EC50 on 5-HT2A [1] is 101 to 1000 nM. The concentration for half-maximal inhibition (IC50) at 5-HT2A [2] lay in the range of 1000 to 10000 nM.
At 5-HT2A [1], `Fc1ccc(Oc2ccc3c4c([nH]c3c2)CCNCC4)cc1` [Compound 15, 8-(4-fluorophenoxy)-1,2,3,4,5,6-hexahydroazepino[4,5-b]indole] registered an EC50 of 101 to 1000 nM. The same molecule registered an IC50 on 5-HT2A [2] of 101 to 1000 nM. Moreover, in the experiment on rat cortical neurons, the “Increase in Neurite Branching” value is listed as “A”, the “Increase in Neurite Length” value is “A” and the “Increase in Neurite Number” value is “A”.
Turning to `Cn1c2c(c3ccc(Oc4ccc(F)cc4)cc31)CCNCC2` [Compound 17, 8-(4-fluorophenoxy)-6-methyl-1,2,3,4,5,6-hexahydroazepino[4,5-b]indole], the EC50 on 5-HT2A [1] is 101 to 1000 nM. Also, the IC50 at 5-HT2A [2] was in the range of 101 to 1000 nM.
In turn, `c1ccc(Oc2cccc3[nH]c4c(c23)CCNCC4)cc1` [Compound 20, 10-phenoxy-1,2,3,4,5,6-hexahydroazepino[4,5-b]indole] showed a concentration for a half-maximal effect (EC50) at 5-HT2A [1] of 10 to 100 nM. For the same molecule, the IC50 on 5-HT2A [2] is 10 to 100 nM. For the same molecule, in the experiment with rat cortical neurons, the “Increase in Neurite Length” value was “B”.
`Fc1ccc(Oc2cccc3[nH]c4c(c23)CCNCC4)cc1` [Compound 21, 10-(4-fluorophenoxy)-1,2,3,4,5,6-hexahydroazepino[4,5-b]indole] gave an EC50 on 5-HT2A [1] of 10 to 100 nM. Also, the IC50 on 5-HT2A [2] is 10 to 100 nM. In the experiment with rat cortical neurons, the “Increase in Neurite Branching” value is recorded as “B”, the “Increase in Neurite Length” value is on record as “B” and the “Increase in Neurite Number” value is “B”.
As for `Cn1c2c(c3c(Oc4ccc(F)cc4)cccc31)CCNCC2` [Compound 23, 10-(4-fluorophenoxy)-6-methyl-1,2,3,4,5,6-hexahydroazepino[4,5-b]indole], on 5-HT2A [1], the EC50 was in the range of 101 to 1000 nM. The IC50 at 5-HT2A [2] fell in the range of 10 to 100 nM.
`c1ccc(COc2cccc3c4c([nH]c23)CCNCC4)cc1` [Compound 27, 7-(benzyloxy)-1,2,3,4,5,6-hexahydroazepino[4,5-b]indole] gave an EC50 on 5-HT2A [1] of 101 to 1000 nM. The molecule further had an IC50 on 5-HT2A [2] of 101 to 1000 nM. In the experiment with rat cortical neurons, the “Increase in Neurite Length” value was “A”.
